# According to patent US20070128217A1 (priority 2003, published 2007):
# How the values were obtained:
# [1] = tested on: antibodies in sera from SARS patients (sera 1a, 1b, 2, 6, 37, 62, London, SARS-yellow, SARS-green); assay type: binding, human; parameters: Binding of serum 6 to linear peptides of protein X1 of SARS-CoV Urbani / Binding of serum 37 to linear peptides of protein X1 of SARS-CoV Urbani / Binding of serum 6 to looped/cyclic peptide (PEPSCAN-ELISA) / Binding of serum 37 to looped/cyclic peptide (PEPSCAN-ELISA) / Binding of serum 37 to looped/cyclic peptides of protein X1 of SARS-CoV Urbani / Binding of serum 6 to linear peptides of protein X2 / Binding of serum 37 to linear peptides of protein X2 / Binding of serum 37 to looped/cyclic peptides of protein X2 of SARS-CoV Urbani / Binding of serum 6 to linear peptides of protein M of SARS-CoV Urbani / Binding of serum 37 to linear peptides of protein M of SARS-CoV Urbani / Binding of serum 6 to looped/cyclic peptides of protein M of SARS-CoV Urbani / Binding of serum 37 to looped/cyclic peptides of protein M of SARS-CoV Urbani / Binding of serum 6 to linear peptides of protein X3 of SARS-CoV Urbani / Binding of serum 37 to linear peptides of protein X3 of SARS-CoV Urbani / Binding of serum 37 to looped/cyclic peptides of protein X3 of SARS-CoV Urbani / Binding of serum 6 to linear peptides of protein X4 of SARS-CoV Urbani / Binding of serum 37 to linear peptides of protein X4 of SARS-CoV Urbani / Binding of serum 37 to looped/cyclic peptides of protein X4 of SARS-CoV Urbani / Binding of serum 6 to linear peptides of protein X5 of SARS-CoV Urbani / Binding of serum 37 to linear peptides of protein X5 of SARS-CoV Urbani / Binding of serum 37 to looped/cyclic peptides of protein X5 of SARS-CoV Urbani / Binding of serum 6 to linear peptides of protein N of SARS-CoV Urbani / Binding of serum 37 to linear peptides of protein N of SARS-CoV Urbani / Binding of serum 6 to linear peptide (PEPSCAN-ELISA) / Binding of serum 1a to looped/cyclic peptides of protein N of SARS-CoV Urbani / Binding of serum 1b to looped/cyclic peptides of protein N of SARS-CoV Urbani / Binding of serum 2 to looped/cyclic peptides of protein N of SARS-CoV Urbani / Binding of serum 6 to looped/cyclic peptides of protein N of SARS-CoV Urbani / Binding of serum 37 to looped/cyclic peptides of protein N of SARS-CoV Urbani / Binding of serum 62 to looped/cyclic peptides of protein N of SARS-CoV Urbani / Binding of serum London to looped/cyclic peptides of protein N of SARS-CoV Urbani / Binding of serum SARS-green to looped/cyclic peptides of protein N of SARS-CoV Urbani: unit not given here
# [2] = tested on: control sera (pooled serum of ten healthy LUMC hospital workers; commercial negative donor pooled serum from the Dutch bloodbank); assay type: binding, human; parameters: Binding of Control serum LUMC to linear peptides / Binding of Control serum Blood-bank to linear peptides / Binding of Control serum LUMC to looped peptides / Binding of Control Serum Blood-Bank to Looped peptides / Binding of Control serum LUMC to linear peptides of the protein M of SARS-CoV Urbani / Binding of Control serum Blood-bank to linear peptides of the protein M of SARS-CoV Urbani / Binding of Control serum LUMC to looped peptides of the protein M of SARS-CoV Urbani / Binding of Control Serum Blood-Bank to Looped peptides of the protein M of SARS-CoV Urbani: unit not given here
# [3] = tested on: rabbit serum obtained by immunizing a rabbit with the SARS-CoV strain Frankfurt 1; assay type: binding; parameters: Binding of a rabbit serum to linear peptides / Binding of a rabbit serum to looped peptides / Rabbit serum linear peptides / Rabbit serum looped peptides / Binding of a rabbit serum to linear peptides of protein N of SARS-CoV Urbani (Rabbit serum linear peptides) / Binding of a rabbit serum to looped/cyclic peptides of protein N of SARS-CoV Urbani (Rabbit serum looped peptides): unit not given here
# [4] = tested on: recombinant human anti-SARS-CoV antibody 03-018; assay type: binding; parameters: Binding of antibody 03-018 to linear peptides of the N protein of SARS-CoV Urbani / Binding of antibody 03-018 to looped/cyclic peptides of the N protein of SARS-CoV Urbani: unit not given here
Sequence,Binding of serum 1a to linear peptides of protein N of SARS-CoV Urbani [1],Binding of serum 1a to looped/cyclic peptides of protein N of SARS-CoV Urbani [1],Binding of serum 1b to linear peptides of protein N of SARS-CoV Urbani [1],Binding of serum 1b to looped/cyclic peptides of protein N of SARS-CoV Urbani [1],Binding of serum 2 to linear peptides of protein N of SARS-CoV Urbani [1],Binding of serum 2 to looped/cyclic peptides of protein N of SARS-CoV Urbani [1],Binding of serum 6 to linear peptides of protein N of SARS-CoV Urbani [1],Binding of serum 6 to looped/cyclic peptides of protein N of SARS-CoV Urbani [1],Binding of serum 37 to linear peptides of protein N of SARS-CoV Urbani [1],Binding of serum 37 to looped/cyclic peptides of protein N of SARS-CoV Urbani [1],Binding of serum 62 to linear peptides of protein N of SARS-CoV Urbani [1],Binding of serum 62 to looped/cyclic peptides of protein N of SARS-CoV Urbani [1],Binding of serum London to linear peptides of protein N of SARS-CoV Urbani [1],Binding of serum London to looped/cyclic peptides of protein N of SARS-CoV Urbani [1],Binding of serum SARS-green to linear peptides of protein N of SARS-CoV Urbani [1],Binding of serum SARS-green to looped/cyclic peptides of protein N of SARS-CoV Urbani [1],Binding of serum SARS-yellow to linear peptides of protein N of SARS-CoV Urbani [1],Binding of serum SARS-yellow to looped/cyclic peptides of protein N of SARS-CoV Urbani [1],Binding of Control Serum Blood-Bank to Looped peptides [2],Binding of Control serum Blood-bank to linear peptides [2],also measured
INTNSGPDDQIGYYR,0.3,0.4,0.2,0.3,0.2,0.4,0.2,0.2,0.9,0.7,0.7,0.5,0.4,0.4,0.2,0.5,0.7,0.5,0.6,0.8,Binding of Control serum LUMC to linear peptides [2]: 0.7; Binding of Control serum LUMC to looped peptides [2]: 0.7; Binding of a rabbit serum to linear peptides of protein N of SARS-CoV Urbani (Rabbit serum linear peptides) [3]: 0.2; Binding of a rabbit serum to looped/cyclic peptides of protein N of SARS-CoV Urbani (Rabbit serum looped peptides) [3]: 0.5; Binding of antibody 03-018 to linear peptides of the N protein of SARS-CoV Urbani [4]: 0.1; Binding of antibody 03-018 to looped/cyclic peptides of the N protein of SARS-CoV Urbani [4]: 0.2
IRQGTDYKHWPQIAQ,0.2,0.4,0.1,0.2,0.2,0.4,0.2,0.2,0.7,0.6,0.6,0.6,0.9,0.4,0.3,0.3,0.6,0.4,0.5,0.7,Binding of Control serum LUMC to linear peptides [2]: 0.7; Binding of Control serum LUMC to looped peptides [2]: 0.6; Binding of a rabbit serum to linear peptides of protein N of SARS-CoV Urbani (Rabbit serum linear peptides) [3]: 0.1; Binding of a rabbit serum to looped/cyclic peptides of protein N of SARS-CoV Urbani (Rabbit serum looped peptides) [3]: 0.3; Binding of antibody 03-018 to linear peptides of the N protein of SARS-CoV Urbani [4]: 0.1; Binding of antibody 03-018 to looped/cyclic peptides of the N protein of SARS-CoV Urbani [4]: 0.2
IVWVATEGALNTPKD,0.2,0.3,0.1,0.2,0.2,0.3,0.2,0.1,0.7,0.5,0.7,0.3,0.6,0.3,0.3,0.9,0.6,0.2,0.4,0.8,Binding of Control serum LUMC to linear peptides [2]: 0.8; Binding of Control serum LUMC to looped peptides [2]: 0.5; Binding of a rabbit serum to linear peptides of protein N of SARS-CoV Urbani (Rabbit serum linear peptides) [3]: 0.1; Binding of a rabbit serum to looped/cyclic peptides of protein N of SARS-CoV Urbani (Rabbit serum looped peptides) [3]: 0.2; Binding of antibody 03-018 to linear peptides of the N protein of SARS-CoV Urbani [4]: 0.1; Binding of antibody 03-018 to looped/cyclic peptides of the N protein of SARS-CoV Urbani [4]: 0.2
